Assays:
Format in all cases: functional
Aspergillus niger [1] = experiment: Antifungal activity against Aspergillus niger assessed as fungus colony inhibition at 10 ppm measured after 96 hr by agar dilution method
Bipolaris oryzae [2] = experiment: Antifungal activity against Bipolaris oryzae assessed as fungus colony inhibition at 10 ppm measured after 96 hr by agar dilution method
Bipolaris oryzae [3] = experiment: Antifungal activity against Bipolaris oryzae assessed as fungus colony inhibition at 100 ppm measured after 96 hr by agar dilution method
Bipolaris oryzae [4] = experiment: Antifungal activity against Bipolaris oryzae assessed as fungus colony inhibition at 1000 ppm measured after 96 hr by agar dilution method
Aspergillus niger [5] = experiment: Antifungal activity against Aspergillus niger assessed as fungus colony inhibition at 100 ppm measured after 96 hr by agar dilution method
Aspergillus niger [6] = experiment: Antifungal activity against Aspergillus niger assessed as fungus colony inhibition at 1000 ppm measured after 96 hr by agar dilution method

COc1ccc(-c2nn3c(COc4cc(C)ccc4C(C)C)nc(=S)nc3o2)cc1
inhibition at 10 ppm (Aspergillus niger [1]): 52.6%
inhibition at 10 ppm (Bipolaris oryzae [2]): 52.3%
inhibition at 100 ppm (Bipolaris oryzae [3]): 64.8%
inhibition at 1000 ppm (Bipolaris oryzae [4]): 80.2%
inhibition at 100 ppm (Aspergillus niger [5]): 66.4%
inhibition at 1000 ppm (Aspergillus niger [6]): 82.5%

Cc1ccc(C(C)C)c(OCc2nc(=S)nc3oc(-c4ccccc4)nn23)c1
inhibition at 10 ppm (Aspergillus niger [1]): 48.2%
inhibition at 10 ppm (Bipolaris oryzae [2]): 48.6%
inhibition at 100 ppm (Bipolaris oryzae [3]): 60.4%
inhibition at 1000 ppm (Bipolaris oryzae [4]): 74.8%
inhibition at 100 ppm (Aspergillus niger [5]): 62.1%
inhibition at 1000 ppm (Aspergillus niger [6]): 78.6%

COc1ccc(-c2nn3c(COc4ccc([N+](=O)[O-])cc4)nc(=S)nc3o2)cc1
inhibition at 10 ppm (Aspergillus niger [1]): 41.5%
inhibition at 10 ppm (Bipolaris oryzae [2]): 48.5%
inhibition at 100 ppm (Bipolaris oryzae [3]): 60.5%
inhibition at 1000 ppm (Bipolaris oryzae [4]): 77.9%
inhibition at 100 ppm (Aspergillus niger [5]): 58.5%
inhibition at 1000 ppm (Aspergillus niger [6]): 75.8%

O=[N+]([O-])c1ccc(OCc2nc(=S)nc3oc(-c4ccccc4)nn23)cc1
inhibition at 10 ppm (Aspergillus niger [1]): 40.7%
inhibition at 10 ppm (Bipolaris oryzae [2]): 41.5%
inhibition at 100 ppm (Bipolaris oryzae [3]): 56.2%
inhibition at 1000 ppm (Bipolaris oryzae [4]): 73.4%
inhibition at 100 ppm (Aspergillus niger [5]): 53.3%
inhibition at 1000 ppm (Aspergillus niger [6]): 71.2%

O=[N+]([O-])c1ccccc1OCc1nc(=S)nc2oc(-c3ccccc3)nn12
inhibition at 10 ppm (Aspergillus niger [1]): 40.3%
inhibition at 10 ppm (Bipolaris oryzae [2]): 40.2%
inhibition at 100 ppm (Bipolaris oryzae [3]): 55.4%
inhibition at 1000 ppm (Bipolaris oryzae [4]): 74.4%
inhibition at 100 ppm (Aspergillus niger [5]): 52.2%
inhibition at 1000 ppm (Aspergillus niger [6]): 70.2%

COc1ccc(-c2nn3c(COc4ccc(C)cc4)nc(=S)nc3o2)cc1
inhibition at 10 ppm (Aspergillus niger [1]): 32.6%
inhibition at 10 ppm (Bipolaris oryzae [2]): 30.9%
inhibition at 100 ppm (Bipolaris oryzae [3]): 40.5%
inhibition at 1000 ppm (Bipolaris oryzae [4]): 60.8%
inhibition at 100 ppm (Aspergillus niger [5]): 42.7%
inhibition at 1000 ppm (Aspergillus niger [6]): 62.3%

Cc1ccc(OCc2nc(=S)nc3oc(-c4ccccc4)nn23)cc1
inhibition at 10 ppm (Aspergillus niger [1]): 40.9%
inhibition at 10 ppm (Bipolaris oryzae [2]): 40.3%
inhibition at 100 ppm (Bipolaris oryzae [3]): 52.5%
inhibition at 1000 ppm (Bipolaris oryzae [4]): 72.6%
inhibition at 100 ppm (Aspergillus niger [5]): 56.7%
inhibition at 1000 ppm (Aspergillus niger [6]): 75.3%

COc1ccc(-c2nn3c(COc4cccc(C)c4)nc(=S)nc3o2)cc1
inhibition at 10 ppm (Aspergillus niger [1]): 32%
inhibition at 10 ppm (Bipolaris oryzae [2]): 30.4%
inhibition at 100 ppm (Bipolaris oryzae [3]): 40.2%
inhibition at 1000 ppm (Bipolaris oryzae [4]): 60.3%
inhibition at 100 ppm (Aspergillus niger [5]): 42.3%
inhibition at 1000 ppm (Aspergillus niger [6]): 62.5%

Cc1cccc(OCc2nc(=S)nc3oc(-c4ccccc4)nn23)c1
inhibition at 10 ppm (Aspergillus niger [1]): 41.5%
inhibition at 10 ppm (Bipolaris oryzae [2]): 36.7%
inhibition at 100 ppm (Bipolaris oryzae [3]): 53.2%
inhibition at 1000 ppm (Bipolaris oryzae [4]): 72.5%
inhibition at 100 ppm (Aspergillus niger [5]): 57.3%
inhibition at 1000 ppm (Aspergillus niger [6]): 76.2%

COc1ccc(-c2nnc(NC(=S)NC(=O)COc3cc(C)ccc3C(C)C)o2)cc1
inhibition at 10 ppm (Aspergillus niger [1]): 46.3%
inhibition at 10 ppm (Bipolaris oryzae [2]): 40.2%
inhibition at 100 ppm (Bipolaris oryzae [3]): 50.9%
inhibition at 1000 ppm (Bipolaris oryzae [4]): 70.8%
inhibition at 100 ppm (Aspergillus niger [5]): 61.6%
inhibition at 1000 ppm (Aspergillus niger [6]): 72.4%

Cc1ccc(C(C)C)c(OCC(=O)NC(=S)Nc2nnc(-c3ccccc3)o2)c1
inhibition at 10 ppm (Aspergillus niger [1]): 33.7%
inhibition at 10 ppm (Bipolaris oryzae [2]): 31.8%
inhibition at 100 ppm (Bipolaris oryzae [3]): 45.3%
inhibition at 1000 ppm (Bipolaris oryzae [4]): 66.6%
inhibition at 100 ppm (Aspergillus niger [5]): 48.2%
inhibition at 1000 ppm (Aspergillus niger [6]): 69.3%

COc1ccc(-c2nnc(NC(=S)NC(=O)COc3ccc([N+](=O)[O-])cc3)o2)cc1
inhibition at 10 ppm (Aspergillus niger [1]): 50.2%
inhibition at 10 ppm (Bipolaris oryzae [2]): 47.4%
inhibition at 100 ppm (Bipolaris oryzae [3]): 61.6%
inhibition at 1000 ppm (Bipolaris oryzae [4]): 75.2%
inhibition at 100 ppm (Aspergillus niger [5]): 64.1%
inhibition at 1000 ppm (Aspergillus niger [6]): 78.7%

O=C(COc1ccc([N+](=O)[O-])cc1)NC(=S)Nc1nnc(-c2ccccc2)o1
inhibition at 10 ppm (Aspergillus niger [1]): 54.3%
inhibition at 10 ppm (Bipolaris oryzae [2]): 50.8%
inhibition at 100 ppm (Bipolaris oryzae [3]): 64.7%
inhibition at 1000 ppm (Bipolaris oryzae [4]): 81.2%
inhibition at 100 ppm (Aspergillus niger [5]): 67.9%
inhibition at 1000 ppm (Aspergillus niger [6]): 85.2%

O=C(COc1ccccc1[N+](=O)[O-])NC(=S)Nc1nnc(-c2ccccc2)o1
inhibition at 10 ppm (Aspergillus niger [1]): 54.8%
inhibition at 10 ppm (Bipolaris oryzae [2]): 51.6%
inhibition at 100 ppm (Bipolaris oryzae [3]): 65.4%
inhibition at 1000 ppm (Bipolaris oryzae [4]): 80.2%
inhibition at 100 ppm (Aspergillus niger [5]): 68.4%
inhibition at 1000 ppm (Aspergillus niger [6]): 85.6%

COc1ccc(-c2nnc(NC(=S)NC(=O)COc3ccc(C)cc3)o2)cc1
inhibition at 10 ppm (Aspergillus niger [1]): 39.2%
inhibition at 10 ppm (Bipolaris oryzae [2]): 38.5%
inhibition at 100 ppm (Bipolaris oryzae [3]): 55.6%
inhibition at 1000 ppm (Bipolaris oryzae [4]): 75.3%
inhibition at 100 ppm (Aspergillus niger [5]): 56.9%
inhibition at 1000 ppm (Aspergillus niger [6]): 76.3%

Cc1ccc(OCC(=O)NC(=S)Nc2nnc(-c3ccccc3)o2)cc1
inhibition at 10 ppm (Aspergillus niger [1]): 35.8%
inhibition at 10 ppm (Bipolaris oryzae [2]): 37.2%
inhibition at 100 ppm (Bipolaris oryzae [3]): 50.8%
inhibition at 1000 ppm (Bipolaris oryzae [4]): 70.1%
inhibition at 100 ppm (Aspergillus niger [5]): 52.6%
inhibition at 1000 ppm (Aspergillus niger [6]): 72.2%

COc1ccc(-c2nnc(NC(=S)NC(=O)COc3cccc(C)c3)o2)cc1
inhibition at 10 ppm (Aspergillus niger [1]): 39.4%
inhibition at 10 ppm (Bipolaris oryzae [2]): 40.5%
inhibition at 100 ppm (Bipolaris oryzae [3]): 56.4%
inhibition at 1000 ppm (Bipolaris oryzae [4]): 75.6%
inhibition at 100 ppm (Aspergillus niger [5]): 55.3%
inhibition at 1000 ppm (Aspergillus niger [6]): 77.2%

Cc1cccc(OCC(=O)NC(=S)Nc2nnc(-c3ccccc3)o2)c1
inhibition at 10 ppm (Aspergillus niger [1]): 34.7%
inhibition at 10 ppm (Bipolaris oryzae [2]): 36.6%
inhibition at 100 ppm (Bipolaris oryzae [3]): 50.4%
inhibition at 1000 ppm (Bipolaris oryzae [4]): 69.8%
inhibition at 100 ppm (Aspergillus niger [5]): 50.2%
inhibition at 1000 ppm (Aspergillus niger [6]): 71.3%
